Where “and” joins values, the source holds several entries; their conditions need not be identical. Equal entries are not always repeated.
Tests used:
Assay in all cases: SelectScreen kinase assay
Assay type in all cases: biochemical
IRAK4_h = target: T1, IRAK4_h (Homo sapiens, UniProt Q9NWZ3); details: KM ATP, read-out: % control
T1 construct: purchased Life Technologies (Invitrogen) SelectScreen, Z'-LYTE / Adapta
Summary of the method: (§1)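 Kinase activity measured by Z'-Lyte or Adapta protocols. Single-point testing used 3 µM compound with ATP at the enzyme's KM, or at 10 or 100 µM as indicated. Values given as % control versus DMSO-only wells (100%).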

Abl_E255K_h = target: T2, Abl_E255K_h (Homo sapiens, UniProt P00519, E255K); details: KM ATP, read-out: % control
T2 construct: purchased Life Technologies (Invitrogen) SelectScreen, Z'-LYTE / Adapta
Summary of the method: as §1

Mer_h = target: T3, Mer_h (Homo sapiens, UniProt Q12866); details: KM ATP, read-out: % control
T3 construct: purchased Life Technologies (Invitrogen) SelectScreen, Z'-LYTE / Adapta
Summary of the method: as §1

IGF-1R_h = target: T4, IGF-1R_h (Homo sapiens, UniProt P08069); details: KM ATP, read-out: % control
T4 construct: purchased Life Technologies (Invitrogen) SelectScreen, Z'-LYTE / Adapta
Summary of the method: as §1

LYN-B_h = target: T5, LYN-B_h (Homo sapiens, UniProt P07948); details: KM ATP, read-out: % control
T5 construct: purchased Life Technologies (Invitrogen) SelectScreen, Z'-LYTE / Adapta
Summary of the method: as §1

EphB2_h = target: T6, EphB2_h (Homo sapiens, UniProt P29323); details: KM ATP, read-out: % control
T6 construct: purchased Life Technologies (Invitrogen) SelectScreen, Z'-LYTE / Adapta
Summary of the method: as §1

PKC-mu_h = target: T7, PKC-mu_h (Homo sapiens, UniProt Q15139); details: KM ATP, read-out: % control
T7 construct: purchased Life Technologies (Invitrogen) SelectScreen, Z'-LYTE / Adapta
Summary of the method: as §1

MAPK3_h = target: T8, MAPK3_h (Homo sapiens, UniProt P27361); details: KM ATP, read-out: % control
T8 construct: purchased Life Technologies (Invitrogen) SelectScreen, Z'-LYTE / Adapta
Summary of the method: as §1

PAK2_h = target: T9, PAK2_h (Homo sapiens, UniProt Q13177); details: KM ATP, read-out: % control
T9 construct: purchased Life Technologies (Invitrogen) SelectScreen, Z'-LYTE / Adapta
Summary of the method: as §1

PAK4_h = target: T10, PAK4_h (Homo sapiens, UniProt O96013); details: KM ATP, read-out: % control
T10 construct: purchased Life Technologies (Invitrogen) SelectScreen, Z'-LYTE / Adapta
Summary of the method: as §1

MKK6_h = target: T11, MKK6_h (Homo sapiens, UniProt P52564); details: 100 µM ATP, read-out: % control
T11 construct: purchased Life Technologies (Invitrogen) SelectScreen, Z'-LYTE / Adapta
Summary of the method: as §1

SRPK1_h = target: T12, SRPK1_h (Homo sapiens, UniProt Q96SB4); details: KM ATP, read-out: % control
T12 construct: purchased Life Technologies (Invitrogen) SelectScreen, Z'-LYTE / Adapta
Summary of the method: as §1

CK2_h = target: T13, CK2_h (Homo sapiens, UniProt P68400); details: KM ATP, read-out: % control
T13 construct: purchased Life Technologies (Invitrogen) SelectScreen, Z'-LYTE / Adapta
Summary of the method: as §1

Fyn_h = target: T14, Fyn_h (Homo sapiens, UniProt P06241); details: KM ATP, read-out: % control
T14 construct: purchased Life Technologies (Invitrogen) SelectScreen, Z'-LYTE / Adapta
Summary of the method: as §1

Ron_h = target: T15, Ron_h (Homo sapiens, UniProt Q04912); details: KM ATP, read-out: % control
T15 construct: purchased Life Technologies (Invitrogen) SelectScreen, Z'-LYTE / Adapta
Summary of the method: as §1

PRK1_h = target: T16, PRK1_h (Homo sapiens, UniProt Q16512); details: KM ATP, read-out: % control
T16 construct: purchased Life Technologies (Invitrogen) SelectScreen, Z'-LYTE / Adapta
Summary of the method: as §1

PDGFR-alpha_D842V_h = target: T17, PDGFR-alpha_D842V_h (Homo sapiens, UniProt P16234, D842V); details: KM ATP, read-out: % control
T17 construct: purchased Life Technologies (Invitrogen) SelectScreen, Z'-LYTE / Adapta
Summary of the method: as §1

PKB-gamma_h = target: T18, PKB-gamma_h (Homo sapiens, UniProt Q9Y243); details: KM ATP, read-out: % control
T18 construct: purchased Life Technologies (Invitrogen) SelectScreen, Z'-LYTE / Adapta
Summary of the method: as §1

NEK1_h = target: T19, NEK1_h (Homo sapiens, UniProt Q96PY6); details: KM ATP, read-out: % control
T19 construct: purchased Life Technologies (Invitrogen) SelectScreen, Z'-LYTE / Adapta
Summary of the method: as §1

Lck_h = target: T20, Lck_h (Homo sapiens, UniProt P06239); details: KM ATP, read-out: % control
T20 construct: purchased Life Technologies (Invitrogen) SelectScreen, Z'-LYTE / Adapta
Summary of the method: as §1

SIK2_h = target: T21, SIK2_h (Homo sapiens, UniProt Q9H0K1); details: KM ATP, read-out: % control
T21 construct: purchased Life Technologies (Invitrogen) SelectScreen, Z'-LYTE / Adapta
Summary of the method: as §1

BRAF V599E = target: T22, BRAF V599E (Homo sapiens, UniProt P15056, V600E); details: 100 µM ATP, read-out: % control
T22 construct: purchased Life Technologies (Invitrogen) SelectScreen, Z'-LYTE / Adapta
Summary of the method: as §1

FGFR3_h = target: T23, FGFR3_h (Homo sapiens, UniProt P22607); details: KM ATP, read-out: % control
T23 construct: purchased Life Technologies (Invitrogen) SelectScreen, Z'-LYTE / Adapta
Summary of the method: as §1

JAK3_h = JAK3_h (Homo sapiens, UniProt P52333)
Summary of the method: as §1

cKit_T670I_h = target: T24, cKit_T670I_h (Homo sapiens, UniProt P10721, T670I); details: KM ATP, read-out: % control
T24 construct: purchased Life Technologies (Invitrogen) SelectScreen, Z'-LYTE / Adapta
Summary of the method: as §1

MRCK-alpha_h = target: T25, MRCK-alpha_h (Homo sapiens, UniProt Q5VT25); details: KM ATP, read-out: % control
T25 construct: purchased Life Technologies (Invitrogen) SelectScreen, Z'-LYTE / Adapta
Summary of the method: as §1

Abl_T315I_h = target: T26, Abl_T315I_h (Homo sapiens, UniProt P00519, T315I); details: KM ATP, read-out: % control
T26 construct: purchased Life Technologies (Invitrogen) SelectScreen, Z'-LYTE / Adapta
Summary of the method: as §1

NEK2_h = target: T27, NEK2_h (Homo sapiens, UniProt P51955); details: KM ATP, read-out: % control
T27 construct: purchased Life Technologies (Invitrogen) SelectScreen, Z'-LYTE / Adapta
Summary of the method: as §1

Fms_h = Fms_h (Homo sapiens, UniProt P07333)
Summary of the method: as §1

GRK4_h = target: T28, GRK4_h (Homo sapiens, UniProt P32298); details: KM ATP, read-out: % control
T28 construct: purchased Life Technologies (Invitrogen) SelectScreen, Z'-LYTE / Adapta
Summary of the method: as §1

PTK5_h = target: T29, PTK5_h (Homo sapiens, UniProt P42685); details: KM ATP, read-out: % control
T29 construct: purchased Life Technologies (Invitrogen) SelectScreen, Z'-LYTE / Adapta
Summary of the method: as §1

MELK_h = target: T30, MELK_h (Homo sapiens, UniProt Q14680); details: KM ATP, read-out: % control
T30 construct: purchased Life Technologies (Invitrogen) SelectScreen, Z'-LYTE / Adapta
Summary of the method: as §1

PRKG1_h = target: T31, PRKG1_h (Homo sapiens, UniProt Q13976); details: KM ATP, read-out: % control
T31 construct: purchased Life Technologies (Invitrogen) SelectScreen, Z'-LYTE / Adapta
Summary of the method: as §1

[1] = 3 µM, KM ATP, read-out: % control
[2] = 10-point dose-response, commercial vendor

JAK3_h, sequence (P52333 whole entry): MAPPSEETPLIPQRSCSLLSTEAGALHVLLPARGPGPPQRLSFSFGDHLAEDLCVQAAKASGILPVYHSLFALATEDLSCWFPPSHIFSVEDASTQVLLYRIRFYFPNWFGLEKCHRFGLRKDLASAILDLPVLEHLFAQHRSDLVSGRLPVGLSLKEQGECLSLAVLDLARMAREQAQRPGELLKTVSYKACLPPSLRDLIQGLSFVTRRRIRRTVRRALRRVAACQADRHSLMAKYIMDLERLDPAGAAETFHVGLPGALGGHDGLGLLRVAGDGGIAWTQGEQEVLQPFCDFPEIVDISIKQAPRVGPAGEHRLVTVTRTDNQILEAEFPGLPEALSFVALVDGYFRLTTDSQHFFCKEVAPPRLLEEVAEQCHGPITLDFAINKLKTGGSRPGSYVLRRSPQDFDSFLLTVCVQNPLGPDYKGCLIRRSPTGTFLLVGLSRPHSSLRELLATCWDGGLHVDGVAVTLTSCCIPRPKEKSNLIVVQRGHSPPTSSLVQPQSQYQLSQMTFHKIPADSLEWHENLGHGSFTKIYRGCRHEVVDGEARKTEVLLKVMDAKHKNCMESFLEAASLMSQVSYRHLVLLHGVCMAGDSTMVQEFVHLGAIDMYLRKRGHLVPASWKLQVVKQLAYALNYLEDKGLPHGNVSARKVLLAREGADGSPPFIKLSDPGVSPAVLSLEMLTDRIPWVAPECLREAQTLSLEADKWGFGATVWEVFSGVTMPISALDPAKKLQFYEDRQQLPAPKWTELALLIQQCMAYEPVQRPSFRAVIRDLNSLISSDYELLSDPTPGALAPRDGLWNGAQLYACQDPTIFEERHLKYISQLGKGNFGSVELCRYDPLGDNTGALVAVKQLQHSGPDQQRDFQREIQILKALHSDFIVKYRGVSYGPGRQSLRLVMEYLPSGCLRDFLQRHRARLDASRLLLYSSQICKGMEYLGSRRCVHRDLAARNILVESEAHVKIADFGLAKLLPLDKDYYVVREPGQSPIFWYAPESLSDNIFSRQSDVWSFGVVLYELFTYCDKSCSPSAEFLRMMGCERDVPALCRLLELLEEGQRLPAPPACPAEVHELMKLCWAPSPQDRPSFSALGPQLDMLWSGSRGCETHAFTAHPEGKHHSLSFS
Fms_h, sequence (P07333 20-972): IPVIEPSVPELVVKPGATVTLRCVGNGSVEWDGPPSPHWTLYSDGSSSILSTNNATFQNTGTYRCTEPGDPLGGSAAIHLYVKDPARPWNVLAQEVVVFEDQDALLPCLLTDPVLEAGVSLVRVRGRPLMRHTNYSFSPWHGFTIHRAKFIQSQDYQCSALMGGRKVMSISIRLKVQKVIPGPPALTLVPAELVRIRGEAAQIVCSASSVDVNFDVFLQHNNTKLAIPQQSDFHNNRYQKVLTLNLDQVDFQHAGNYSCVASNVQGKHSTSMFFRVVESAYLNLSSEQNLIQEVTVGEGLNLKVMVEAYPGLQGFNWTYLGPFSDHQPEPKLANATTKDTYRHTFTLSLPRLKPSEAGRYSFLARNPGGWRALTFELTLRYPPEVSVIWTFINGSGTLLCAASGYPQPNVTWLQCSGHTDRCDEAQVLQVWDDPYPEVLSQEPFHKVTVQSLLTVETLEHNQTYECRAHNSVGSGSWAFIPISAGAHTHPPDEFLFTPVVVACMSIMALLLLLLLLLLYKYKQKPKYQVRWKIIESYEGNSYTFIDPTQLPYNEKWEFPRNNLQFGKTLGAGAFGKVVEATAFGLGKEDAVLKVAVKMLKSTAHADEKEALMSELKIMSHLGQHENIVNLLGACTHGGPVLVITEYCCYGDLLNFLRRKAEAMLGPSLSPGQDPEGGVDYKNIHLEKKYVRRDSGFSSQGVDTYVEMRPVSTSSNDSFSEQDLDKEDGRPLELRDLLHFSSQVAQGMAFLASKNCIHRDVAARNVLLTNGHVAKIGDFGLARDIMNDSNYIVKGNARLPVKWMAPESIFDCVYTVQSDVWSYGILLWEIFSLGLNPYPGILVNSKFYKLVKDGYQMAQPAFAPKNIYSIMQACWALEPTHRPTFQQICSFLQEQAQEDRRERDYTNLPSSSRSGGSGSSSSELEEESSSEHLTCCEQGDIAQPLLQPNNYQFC
T15 sequence (Q04912 25-1400): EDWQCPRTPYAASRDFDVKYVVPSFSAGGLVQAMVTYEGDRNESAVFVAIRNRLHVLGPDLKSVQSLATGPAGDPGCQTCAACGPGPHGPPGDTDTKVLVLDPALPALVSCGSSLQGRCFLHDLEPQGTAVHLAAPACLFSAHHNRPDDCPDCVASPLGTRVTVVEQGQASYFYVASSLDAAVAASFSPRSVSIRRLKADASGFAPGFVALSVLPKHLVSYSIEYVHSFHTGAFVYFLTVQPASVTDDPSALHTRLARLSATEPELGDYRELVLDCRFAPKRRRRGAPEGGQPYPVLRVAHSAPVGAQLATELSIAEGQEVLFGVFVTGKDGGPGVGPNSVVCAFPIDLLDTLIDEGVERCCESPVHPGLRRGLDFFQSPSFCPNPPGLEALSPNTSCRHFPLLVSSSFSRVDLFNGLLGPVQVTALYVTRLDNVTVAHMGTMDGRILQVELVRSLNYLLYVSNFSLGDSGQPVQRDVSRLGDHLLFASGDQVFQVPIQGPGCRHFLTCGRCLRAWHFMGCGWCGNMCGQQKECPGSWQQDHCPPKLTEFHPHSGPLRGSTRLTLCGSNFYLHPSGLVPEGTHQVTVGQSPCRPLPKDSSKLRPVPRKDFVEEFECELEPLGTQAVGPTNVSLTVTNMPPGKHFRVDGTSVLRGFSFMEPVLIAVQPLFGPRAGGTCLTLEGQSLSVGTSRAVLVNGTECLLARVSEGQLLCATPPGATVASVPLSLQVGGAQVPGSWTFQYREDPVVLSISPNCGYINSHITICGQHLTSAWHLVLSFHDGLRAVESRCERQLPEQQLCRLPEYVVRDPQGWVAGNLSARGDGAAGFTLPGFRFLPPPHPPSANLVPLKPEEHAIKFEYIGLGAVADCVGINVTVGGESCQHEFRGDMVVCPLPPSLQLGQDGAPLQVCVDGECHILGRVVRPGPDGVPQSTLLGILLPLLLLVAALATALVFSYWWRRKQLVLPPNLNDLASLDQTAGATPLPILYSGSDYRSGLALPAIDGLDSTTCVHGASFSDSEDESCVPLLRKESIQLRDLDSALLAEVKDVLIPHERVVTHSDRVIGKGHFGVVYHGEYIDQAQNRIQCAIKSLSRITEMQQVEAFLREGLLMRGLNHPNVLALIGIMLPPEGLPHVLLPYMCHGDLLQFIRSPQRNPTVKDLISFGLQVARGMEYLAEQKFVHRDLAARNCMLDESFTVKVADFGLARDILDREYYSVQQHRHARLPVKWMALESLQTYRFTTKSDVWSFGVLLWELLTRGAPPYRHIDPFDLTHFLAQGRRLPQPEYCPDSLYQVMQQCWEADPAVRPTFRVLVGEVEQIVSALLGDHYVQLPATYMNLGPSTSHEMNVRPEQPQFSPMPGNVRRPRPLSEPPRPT
T10 sequence (O96013 whole entry): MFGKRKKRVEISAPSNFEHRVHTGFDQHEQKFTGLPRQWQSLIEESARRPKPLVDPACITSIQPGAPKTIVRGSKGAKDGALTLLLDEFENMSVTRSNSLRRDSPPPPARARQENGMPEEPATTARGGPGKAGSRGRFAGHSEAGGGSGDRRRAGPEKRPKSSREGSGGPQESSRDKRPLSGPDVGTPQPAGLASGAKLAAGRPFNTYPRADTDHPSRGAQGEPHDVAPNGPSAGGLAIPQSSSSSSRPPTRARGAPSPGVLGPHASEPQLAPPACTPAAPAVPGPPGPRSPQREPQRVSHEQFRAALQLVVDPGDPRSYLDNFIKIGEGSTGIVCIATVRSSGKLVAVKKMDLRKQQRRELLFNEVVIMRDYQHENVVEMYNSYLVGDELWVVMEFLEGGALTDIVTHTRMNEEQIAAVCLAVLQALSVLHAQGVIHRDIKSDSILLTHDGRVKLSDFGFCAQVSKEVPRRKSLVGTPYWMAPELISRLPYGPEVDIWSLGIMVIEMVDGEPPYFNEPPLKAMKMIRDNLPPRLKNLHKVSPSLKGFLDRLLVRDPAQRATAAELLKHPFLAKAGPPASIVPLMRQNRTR
T14 sequence (P06241 whole entry): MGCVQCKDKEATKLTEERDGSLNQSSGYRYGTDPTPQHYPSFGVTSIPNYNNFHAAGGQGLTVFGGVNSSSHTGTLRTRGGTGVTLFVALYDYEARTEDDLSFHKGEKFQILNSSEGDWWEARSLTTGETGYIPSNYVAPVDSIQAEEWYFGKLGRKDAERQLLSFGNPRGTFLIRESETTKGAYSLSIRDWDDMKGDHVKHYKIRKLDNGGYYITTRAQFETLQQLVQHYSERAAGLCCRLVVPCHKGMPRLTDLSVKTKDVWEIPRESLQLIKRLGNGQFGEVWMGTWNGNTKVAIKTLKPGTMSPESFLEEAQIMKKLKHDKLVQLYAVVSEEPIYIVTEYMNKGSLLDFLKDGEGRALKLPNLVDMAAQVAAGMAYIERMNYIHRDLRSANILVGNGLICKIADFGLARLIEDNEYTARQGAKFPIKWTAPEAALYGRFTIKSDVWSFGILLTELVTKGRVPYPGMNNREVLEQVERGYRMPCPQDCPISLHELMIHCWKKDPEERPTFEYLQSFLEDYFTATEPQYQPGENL
T8 sequence (P27361 whole entry): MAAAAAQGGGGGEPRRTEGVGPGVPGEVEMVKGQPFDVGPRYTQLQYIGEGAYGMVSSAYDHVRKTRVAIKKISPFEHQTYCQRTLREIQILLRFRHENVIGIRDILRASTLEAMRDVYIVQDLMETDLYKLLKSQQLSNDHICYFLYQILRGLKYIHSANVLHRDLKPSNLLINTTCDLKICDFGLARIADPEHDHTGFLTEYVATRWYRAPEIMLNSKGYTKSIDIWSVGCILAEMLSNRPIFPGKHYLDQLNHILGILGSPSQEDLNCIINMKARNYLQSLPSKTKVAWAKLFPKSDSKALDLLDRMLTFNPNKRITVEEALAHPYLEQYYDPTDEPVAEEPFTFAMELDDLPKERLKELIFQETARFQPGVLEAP

## c1cc(CC2CCOCC2)n2nc(Nc3ccc4c(NC5CCOCC5)n[nH]c4c3)nc2c1 [CC-509, [3-(2H-3,4,5,6-tetrahydropyran-4-ylamino)(1H-indazol-6-yl)][5-(2H-3,4,5,6-tetrahydropyran-4-ylmethyl)(2H-1,2,4-triazolo[1,5-a]pyridin-2-yl)]amine]
IRAK4_h
  remaining activity at 3 µM: 94%
Abl_E255K_h
  remaining activity at 3 µM: 26%
Mer_h
  remaining activity at 3 µM: 90%
IGF-1R_h
  remaining activity at 3 µM: 97%
LYN-B_h
  remaining activity at 3 µM: 39%
EphB2_h
  remaining activity at 3 µM: 75%
PKC-mu_h
  remaining activity at 3 µM: 34%
MAPK3_h
  remaining activity at 3 µM: 90%
PAK2_h
  remaining activity at 3 µM: 85%
PAK4_h
  remaining activity at 3 µM: 87%
MKK6_h
  remaining activity at 3 µM: 101%
SRPK1_h
  remaining activity at 3 µM: 98%
CK2_h
  remaining activity at 3 µM: 94%
Fyn_h
  remaining activity at 3 µM: 74%
Ron_h
  remaining activity at 3 µM: 74%
PRK1_h
  remaining activity at 3 µM: 60%
PDGFR-alpha_D842V_h
  remaining activity at 3 µM: 9%
PKB-gamma_h
  remaining activity at 3 µM: 99%
NEK1_h
  remaining activity at 3 µM: 73%
Lck_h
  remaining activity at 3 µM: 39%
SIK2_h
  remaining activity at 3 µM: 6%
BRAF V599E
  remaining activity at 3 µM: 88%
FGFR3_h
  remaining activity at 3 µM: 68%
JAK3_h; [1]
  remaining activity at 3 µM: 5%
JAK3_h; [2]
  IC50: 20 nM and 18 nM
cKit_T670I_h
  remaining activity at 3 µM: 83%
MRCK-alpha_h
  remaining activity at 3 µM: 91%
Abl_T315I_h
  remaining activity at 3 µM: 34%
NEK2_h
  remaining activity at 3 µM: 101%
Fms_h; [1]
  remaining activity at 3 µM: 2%
Fms_h; [2]
  IC50: 8.61 nM
GRK4_h
  remaining activity at 3 µM: 82%
PTK5_h
  remaining activity at 3 µM: 86%
MELK_h
  remaining activity at 3 µM: 10%
PRKG1_h
  remaining activity at 3 µM: 96%

Source: paper PMC4710522, “A Novel Triazolopyridine-Based Spleen Tyrosine Kinase Inhibitor That Arrests Joint Inflammation” (PLoS ONE, 2016)
